Results as given in patent US11673866B2, “Estrogen receptor beta ligands for the prevention and treatment of multiple sclerosis (MS) and other demyelinating, inflammatory and neurodegenerative diseases” (The Board of Trustees of the University of Illinois, priority 2018, dated 2023).
“Also recorded” adds a separate entry of the source. One block for each compound: values may come before it.

How the values were obtained:
EAE mice = experiment: Rotarod behavioral assay in EAE mice; format: in vivo, mouse; parameters: key to Disability: Rotarod performance: ‘+’ indicate marker was significantly (p ≤ 0.05) increased in treatment group relative to vehicle; ‘−’ indicates marker was significantly (p ≤ 0.05) decreased in treatment group relative to vehicle; ○: ‘o’ indicate marker did not change relative to vehicle; conditions: for Disability: Rotarod performance: vs vehicle; for rotarod performance (motor function): therapeutic s.c. from day 8 (postEAE)
Procedure: Rotarod behavioral assay: Motor behavior was tested up to two times per week for each mouse using a rotarod apparatus (Med Associates, Inc., St. Albans, Vt.). Briefly, animals were placed on a rotating horizontal cylinder for a maximum of 200 seconds. The amount of time the mouse remained walking on the cylinder without falling was recorded. Each mouse was tested on a speed of 3-30 rpm and given three trials for any given day. The three trials were averaged to report a single value for an individual mouse, and averages were then calculated for all animals within a given treatment group (Moore et al., 2014). The first two trial days prior to immunization served as practice trials.
As a complementary assay of motor function, mice were tested on a rotarod device following a previously described protocol (Moore et al., 2014). […] (FIG. 2B).

[1] = test system: CD45+ leukocyte, Iba1+ macrophage/microglia, GFAP+ astrocytes; experiment: CD45, Iba1 and GFAP staining in thoracic spinal cord dorsal column of EAE mice; format: in vivo, mouse; parameters: key to CNS Cellular Inflammation: CD45 / CNS Cellular Inflammation: Iba1 / CNS Cellular Inflammation: GFAP: ‘+’ indicate marker was significantly (p ≤ 0.05) increased in treatment group relative to vehicle; ‘−’ indicates marker was significantly (p ≤ 0.05) decreased in treatment group relative to vehicle; ○: ‘o’ indicate marker did not change relative to vehicle; conditions: vs vehicle; for CD45 fluorescence intensity, spinal cord dorsal column / GFAP fluorescence intensity, spinal cord dorsal column: therapeutic treatment (postEAE)
Text: Immunohistochemistry: Before histological staining, 40-μm free floating sections were thoroughly washed with PBS to remove residual sodium azide (Crawford et al., 2010). Sections were permeabilized with 0.3% Triton X-100 in ix PBS and 15% normal goat serum (NGS). Myelination, gliosis and immune markers were visualized by the following primary antibodies at a concentration of 1:500 unless otherwise noted: chicken anti-myelin basic protein (MBP; polyclonal, EMD Millipore, Darmstadt, Germany), chicken anti-glial fibrillary acidic protein (GFAP; EMD Millipore, Darmstadt), rat anti-cluster of differentiation 45 (CD45; clone 30-F11, BD Biosciences, San Diego, Calif.), mouse anti-ionized calcium-binding adapter molecule 1/allograft inflammatory factor-1 (Iba1/AIF1; clone 20A12.1, EMD Millipore, Darmstadt, Germany), goat anti-CXCL1 (R&D systems; Minneapolis, Minn.) at 1:250 and mouse anti-adenomatous polyposis coli (CC-1; clone CC-1, Genetex, Irvine, Calif.). Secondary staining was performed using polyclonal fluorophore-conjugated antibodies from ThermoFisher Scientific at a concentration of 1:500 unless otherwise specified: goat anti-chicken Alexa Fluor® 555 (AF555), goat anti-rabbit Alexa Fluor® 647 (AF647), donkey anti-chicken IgY Cy3 (EMD Millipore), goat anti-rat IgG AF647, goat anti-rabbit IgG Cy3 (EMD Millipore), goat anti-mouse IgG2b AF647 and rabbit anti-goat AF647. Nuclei were counter stained with 4′,6-Diamidino-2-phenylindole (DAPI, 2 ng/ml; Molecular Probes) for 10 minutes after incubation with secondary antibodies, and sections were mounted on glass slides, allowed to dry, and coverslipped with Fluoromount G mounting medium (Thermo Fisher Scientific) for imaging.
Confocal Microscopy: Thoracic spinal cord dorsal and ventral column sections, as well as CC were imaged using an Olympus BX61 confocal microscope (Olympus America Inc., Center Valley, Pa.) using a 10× and 40× objective. Z-stack projections were compiled using SlideBook 6 software (Intelligent Imaging Innovations, Inc., Denver, Colo.). Immunostaining was quantified using unbiased stereology (Crawford et al., 2010). All images (RGB) were Confocal converted to grayscale, split, and separated by color channel using imageJ version 2.2.0-rc-46/1.50 g (NIH). To avoid experimenter bias, auto-adjustment of brightness and contrast, as well as threshold of staining signal, was carried out by ImageJ. MBP^+, GFAP^+, CD45^+, Iba1^+, CC1^+, and CXCL1^+, staining intensity was measured as percent area of positive immunoreactivity within the region of interest and intensity of signal determined by ImageJ.
To assess whether IndCl analogues exert similar anti-inflammatory effects, CD45+ leukocyte, ionized calcium-binding adapter molecule 1 (Iba1)+ macrophage/microglia, and GFAP+ astrocytes were assessed in thoracic spinal cord dorsal column sections from normal and EAE mice.

ERα = target: T1, ERα (Homo sapiens, UniProt P03372); experiment: Relative binding affinity (RBA) to estrogen receptor alpha, radiometric measurement; conditions: relative value to 100% for E2 by radiometric measurement
T1 sequence (P03372 1-595): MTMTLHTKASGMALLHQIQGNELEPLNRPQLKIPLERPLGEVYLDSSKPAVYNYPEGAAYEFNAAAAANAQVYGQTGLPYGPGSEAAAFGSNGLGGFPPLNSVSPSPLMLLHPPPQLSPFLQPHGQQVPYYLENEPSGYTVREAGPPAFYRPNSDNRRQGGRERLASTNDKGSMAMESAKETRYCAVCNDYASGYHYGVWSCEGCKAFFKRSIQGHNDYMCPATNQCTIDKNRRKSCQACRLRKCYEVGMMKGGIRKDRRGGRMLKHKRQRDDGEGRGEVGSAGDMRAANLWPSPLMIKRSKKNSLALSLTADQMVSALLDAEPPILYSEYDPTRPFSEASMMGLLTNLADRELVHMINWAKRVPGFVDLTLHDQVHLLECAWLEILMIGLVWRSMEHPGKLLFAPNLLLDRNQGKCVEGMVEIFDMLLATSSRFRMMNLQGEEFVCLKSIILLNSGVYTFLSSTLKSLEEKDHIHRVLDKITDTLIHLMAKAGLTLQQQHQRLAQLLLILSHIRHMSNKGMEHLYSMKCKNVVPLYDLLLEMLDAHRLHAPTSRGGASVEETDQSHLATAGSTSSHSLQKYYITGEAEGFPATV

corpus callosum axons = experiment: Electron microscopy g-ratio of corpus callosum axons of EAE mice; format: in vivo, mouse; parameters: key to Myelination: g-ratio: ‘+’ indicate marker was significantly (p ≤ 0.05) increased in treatment group relative to vehicle; ‘−’ indicates marker was significantly (p ≤ 0.05) decreased in treatment group relative to vehicle; ○: ‘o’ indicate marker did not change relative to vehicle; conditions: vs vehicle; for Myelination: g-ratio: Post (therapeutic, postEAE) treatment of EAE mice
Procedure: Transmission Electron Microscopy: Mice were perfused with PBS as above followed by paraformaldehyde/glutaraldehyde to preserve ultrastructure and Epon embedded as previously described (Crawford et al., 2010). Serial ultrathin sections of Epon-embedded CC were stained with uranyl acetate-lead citrate were used for electron microscopy analysis (19). G-ratio was measured using Fiji v1.0 Software (NIH).
EM analysis (FIGS. 8A and 8B): Within a given field imaged, g-ratios were calculated by comparing mean ratio of inner axonal diameter to total outer diameter for all myelinated and non-myelinated fibers. […] Treatment with IndCl or either analogue decreased both non-myelinated axons numbers and g-ratio relative to vehicle.

[2] = Post (therapeutic, postEAE) treatment of EAE mice
[3] = Pre (prophylactic, preEAE) E2 treatment of EAE mice

SMILES: C[C@]12CC[C@@H]3c4ccc(O)cc4CC[C@H]3[C@@H]1CC[C@@H]2O [E2, 170 estradiol]
Disability: Rotarod performance (EAE mice; [2]): ○
Disability: Rotarod performance (EAE mice; [3]): +
CNS Cellular Inflammation: CD45 [1, 2]: −
CNS Cellular Inflammation: GFAP [1, 2]: ○
CNS Cellular Inflammation: Iba1 [1, 2]: ○
CNS Cellular Inflammation: CD45 [1, 3]: −
CNS Cellular Inflammation: GFAP [1, 3]: −
CNS Cellular Inflammation: Iba1 [1, 3]: −

RBA ERα (ERα): 0.03%
SMILES: Oc1ccc(-n2nc3ccc(O)cc3c2Cl)cc1 [IndCl, chloroindazole]
Myelination: g-ratio (corpus callosum axons): −
g-ratio of callosal axons (corpus callosum axons; therapeutic treatment (postEAE)): decreased
Disability: Rotarod performance (EAE mice; [2]): ○
rotarod performance (motor function) (EAE mice): had a tendency to fall from the cylinder abruptly
CNS Cellular Inflammation: CD45 [1, 2]: −
CNS Cellular Inflammation: GFAP [1, 2]: ○
CNS Cellular Inflammation: Iba1 [1, 2]: −
CD45 fluorescence intensity, spinal cord dorsal column [1]: similar

RBA ERα (ERα): 0.40%
SMILES: Oc1ccc(-n2nc3ccc(O)cc3c2Cl)c(Cl)c1 [IndCl-o-Cl, 3-chloro-2-(2-chloro-4-hydroxyphenyl)-2H-indazol-5-ol]
Myelination: g-ratio (corpus callosum axons): −
Disability: Rotarod performance (EAE mice; [2]): +
rotarod performance (motor function) (EAE mice): increase of EAE mice remaining on the rotarod; also recorded: improved rotarod performance
CNS Cellular Inflammation: CD45 [1, 2]: −
CNS Cellular Inflammation: GFAP [1, 2]: ○
CNS Cellular Inflammation: Iba1 [1, 2]: ○
CD45 fluorescence intensity, spinal cord dorsal column [1]: similar
GFAP fluorescence intensity, spinal cord dorsal column [1]: similar

RBA ERα (ERα): 0.43%
SMILES: Cc1cc(O)ccc1-n1nc2ccc(O)cc2c1Cl [IndCl-o-Me, 3-chloro-2-(4-hydroxy-2-methylphenyl)-2H-indazol-5-ol]
Myelination: g-ratio (corpus callosum axons): −
Disability: Rotarod performance (EAE mice; [2]): +
rotarod performance (motor function) (EAE mice): improved rotarod performance; also recorded: greatest improvement in motor function
CNS Cellular Inflammation: CD45 [1, 2]: −
CNS Cellular Inflammation: GFAP [1, 2]: ○
CNS Cellular Inflammation: Iba1 [1, 2]: ○
CD45 fluorescence intensity, spinal cord dorsal column [1]: similar
GFAP fluorescence intensity, spinal cord dorsal column [1]: similar
